Target: Peptidyl-prolyl cis-trans isomerase FKBP1A (Homo sapiens, UniProt P62942)
Assay: Binding affinity towards immunophilin cytosolic protein FK506 binding protein 12 was determined

Peptidyl-prolyl cis-trans isomerase FKBP1A, sequence (P62942 whole entry): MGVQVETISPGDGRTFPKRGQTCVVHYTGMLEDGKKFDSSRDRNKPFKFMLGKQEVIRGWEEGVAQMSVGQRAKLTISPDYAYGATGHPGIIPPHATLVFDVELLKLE

Ki | SMILES
207 nM | C=CCC(CC=C)C(=O)C[C@H](O)[C@@H](C)[C@H](OC(=O)[C@@H]1CCCCN1C(=O)C(=O)[C@]1(O)O[C@H]([C@H](/C=C\C)OC)CC[C@H]1C)[C@H](C)C[C@@H]1CC[C@@H](O)[C@H](OC)C1
400 nM | CCC[C@H](/C=C(\C)C[C@H](C)C[C@H](OC)[C@H]1O[C@@](O)(C(=O)C(=O)N2CCCC[C@H]2C(=O)O[C@H](/C(C)=C/[C@@H]2CC[C@@H](O)[C@H](OC)C2)C(C)C)[C@H](C)C[C@@H]1OC)C(C)=O

— ChEMBL document CHEMBL1127921, “Synthesis and study of a non macrocyclic FK506 derivative” (Bioorg Med Chem Lett, 1994)
